Assay [1] concerns NF-κB target genes, IL-8, MCP-1, and E-selectin. Briefly: Quantitative RT-PCR of TNF-α-induced NF-κB target genes. In kind it is cell-based, Homo sapiens. The following applies: HEK293T or HeLa; RA-V 24 h, 10 ng/mL TNF-α 2 h; normalized to GADPH. As to the method:
Fig. 1 RA-V inhibits TNF-α- and LPS-induced activation of NF-κB. a Chemical structure of RA-V. b RA-V inhibited the NF-κB signaling pathway in a dose-dependent manner. HEK293T or HeLa cells were transfected with the 5 × κB-luciferase and pTK-Renilla reporters. Twenty-four hours after transfection, the cells were incubated with various concentrations of RA-V for 6 h, and then treated with 10 ng/mL TNF-α for 2 h before the luciferase activity assay and MTT assay. c RA-V reduced TNF-α-induced expression of NF-κB target genes. HEK293T or HeLa cells were treated with various concentrations of RA-V for 24 h and stimulated with 10 ng/mL TNF-α for 2 h. The expression of the NF-κB target genes, IL-8, MCP-1, and E-selectin was measured by quantitative RT-PCR and normalized to GADPH expression. d RA-V inhibited TNF-α-induced p65 phosphorylation, IκBα phosphorylation and IκBα degradation. […] The expression of IL-6 was measured. h RA-V inhibited LPS-induced p65 phosphorylation, IκBα phosphorylation. […] The protein expression was measured. i RA-V inhibited LPS-induced IL-6 production. […] The expression of IL-6 was measured.
The total RNA was extracted from the indicated cells using TRIzol reagent (Invitrogen) according to the manufacturer’s instructions and then was reverse transcribed. The RNA concentrations were measured spectrophotometrically with a BioPhotometer (Eppendorf). […]

A further assay relates to HepG2 xenograft tumors. Description: HepG2 xenograft in nude mice. Format: in vivo, female athymic nude BALB/c mice. As to the method:
Fig. 7 RA-V inhibits tumor growth and the expression of NF-κB target genes in a nude xenograft model. a–d Inhibition of the growth of HCT116 and HepG2 xenograft tumors by RA-V. Female athymic nude BALB/c mice bearing HCT116 (n = 8) or HepG2 (n = 7) xenograft tumors were intravenously injected with various concentrations of RA-V micelles or control micelles every other day. 5-FU (10 mg/kg) group as positive control. Effects of RA-V on the growth curves of subcutaneoue xenografts of HCT116 (a) and HepG2 (b) and effects on the tumor weight in the HCT116 (c) and HepG2 (d) models. e–f Tumors removed were photographed. g–h The expression of the NF-κB target genes, IL-8, MCP-1, and CXCL-1, in HCT116 (g) and HepG2 (h) tumor tissue from vehicle- and various concentrations of RA-V-treated group was determined by quantitative RT-PCR and normalized to GADPH expression. *, p < 0.05; **, p < 0.01; ***, p < 0.001
In total, 2 × 10^6 HCT116 or 3 × 10^6 HepG2 cells were subcutaneously injected into the right dorsal flank of 6- to 8-week-old female athymic nude BALB/c mice. After tumor volumes reached 100 mm^3, the tumor-bearing mice were randomly divided into several groups. The mice bearing HCT116 (n = 8) or HepG2 xenograft tumors (n = 7) were received the intravenous injection of vehicle micelles or various concentrations of RA-V micelles every other day. 5-FU (10 mg/kg) group as positive control. Body weights and tumor volumes were recorded every other day. Tumor volumes were calculated using the following formula: tumor volume (mm^3) = 0.52 × length × width^2. At the end of the experiments, the mice were killed. Tumor xenografts of each mouse were removed and weighed. Part of each tumor tissue was stored at liquid nitrogen for quantitative RT-PCR analysis. […] Serum alanine transaminase(ALT), aspartate transaminase(AST), and creatine kinase(CK) were determined using relevant kits (Nanjing Jiancheng) according to the manufacturer’s specific instructions.

Where [2] appears, read: HepG2, n = 7, RA-V micelles i.v. every other day, vs control.

These results are taken from paper PMC6006164, “Natural cyclopeptide RA-V inhibits the NF-κB signaling pathway by targeting TAK1” (Cell Death & Disease, 2018).

Regarding RA-V, the “TNF-α-induced expression of IL-8, MCP-1, and E-selectin” value in assay [1] was “dose-dependently decreased”. Besides, in the assay with HepG2 xenograft tumors (setting [2]), the “tumor growth rate (tumor volume)” value is recorded as “significantly reduced” and the tumor weight entry is “obviously lower”. Moreover, the “expression of IL-8, MCP-1, and CXCL-1 in tumor tissue” value with HepG2 xenograft tumors (HepG2 xenograft, quantitative RT-PCR) is recorded as “remarkable decreased”.
